According to ChEMBL document CHEMBL1131517, “4,4,14 alpha-trimethyl 9 beta,19-cyclo-5 alpha-26-homocholesta-24,26-dien-3 beta-ol: a potent mechanism-based inactivator of delta 24(25)- to delta 25(27)-sterol methyl transferase” (Bioorg Med Chem Lett, 1998):

Tests used:
[1] = Compound was tested for inactivation of sterol methyl transferase (SMT) enzyme in Prototheca wickerhamii
Prototheca wickerhamii = test: Compound was tested for inactivation of sterol methyl transferase( SMT) enzyme in Prototheca wickerhamii

- Ki [1]: 30 µM
- K inact (Prototheca wickerhamii): 0.3 min⁻¹
SMILES: C=C/C(C)=C/CC[C@@H](C)C1CC[C@@]2(C)C3CCC4C(C)(C)C(O)CCC45CC35CCC12C (some centres not stated)
